Measured values reported in PMC3366211, “Leishmanicidal Activity of Nine Novel Flavonoids from Delphinium staphisagria” (The Scientific World Journal, 2012).

What was measured:
[1] = system: L. braziliensis promastigote forms; assay: Promastigote forms assay; assay type: cell-based, Leishmania braziliensis; details: for SI Promastigote forms: IC50 macrophages/IC50 parasite form; for IC50: Leishmania braziliensis, 72 h; for number of times that compound SI exceeds the reference drug SI, Promastigote forms: in brackets, reference Glucantime
Description: (§1) The compounds obtained were dissolved in the culture medium, at dosages of 100, 50, 25, 10, and 1 μM. The effects of each compound against promastigote forms were tested at 72 hours using a Neubauer haemocytometric chamber. The antileishmanial effect is expressed as the IC50, that is, the concentration required to give 50% inhibition, calculated by linear regression analysis from the Kc values of the concentrations employed.

[2] = system: L. infantum promastigote forms; assay: Promastigote forms assay; assay type: cell-based, Leishmania infantum; details: for SI Promastigote forms: IC50 macrophages/IC50 parasite form; for IC50: Leishmania infantum, 72 h; for times SI exceeds the reference drug SI (all forms): extracellular and intracellular forms; for times SI exceeds the reference drug SI (all forms) / number of times that compound SI exceeds the reference drug SI, Promastigote forms: reference Glucantime; for number of times that compound SI exceeds the reference drug SI, Promastigote forms: in brackets
Description: as §1

[3] = system: L. braziliensis intracellular amastigote forms; assay: Intracellular amastigote forms assay in J774.2 macrophages; assay type: cell-based, Leishmania braziliensis; details: for SI Intracellular amastigote forms / number of times that compound SI exceeds the reference drug SI, Intracellular amastigote forms: L. braziliensis; for SI Intracellular amastigote forms: IC50 macrophages/IC50 parasite form; for number of times that compound SI exceeds the reference drug SI, Intracellular amastigote forms: in brackets, reference Glucantime; for IC50: Leishmania braziliensis, L. braziliensis in J774.2 macrophages, 72 h
Description: (§2) Cells were seeded at a density of 1 × 10^4 cells/well in 24-well microplates (Nunc) with rounded coverslips on the bottom and cultured for 2 days. Afterwards the cells were infected in vitro with promastigote forms of L. infantum and L. braziliensis, at a ratio of 10 : 1 during 24 hours. The non-phagocytosed parasites were removed by washing, and then the drugs (at 1, 10, 25, 50, 100 μM) were added. Macrophages with the drugs were incubated for 72 hours at 37°C in 5% CO2.
(§3) Drug activity was determined on the basis of number of amastigotes in treated and untreated cultures in methanol-fixed and Giemsa-stained preparations. The number of amastigotes was determined by analyzing 200 host cells distributed in randomly chosen microscopic fields. The antileishmanial effect is expressed as the IC50 values are the means of three separate determinations.

J774.2 macrophages = assay: Cytotoxicity test for macrophages (flow cytometry); assay type: cell-based, BALB/c rat; details: Mus musculus, J774.2, 72 h, J774.2 macrophages after 72 h of culture; read-out: Macrophage toxicity IC50
Description: J774.2 macrophages (ECACC number 91051511) were originally obtained from a tumour in a female BALB/c […] in 1968. The cytotoxicity test for macrophages was performed according to the methodology of González et al.. After 72 hours of treatment, cell viability was determined by flow cytometry. Thus, 100 μL/well of propidium iodide solution ([…]) was added and incubated for 10 min at 28°C in darkness. Afterwards, 100 μL/well of fluorescein diacetate (100 ng/mL) was added and incubated under the same conditions. Finally, the cells were recovered by centrifugation at 400 g for 10 min and the precipitate washed with phosphate buffered saline (PBS). Flow cytometric analysis was performed with a FACSVantage flow cytometer (Becton Dickinson). The percentage viability was calculated in comparison with the control culture. The IC50 was calculated using linear regression analysis from the Kc values of the concentrations employed.

[4] = system: L. infantum axenic amastigote forms; assay: Axenic amastigote forms assay; assay type: cell-based, Leishmania infantum; details: for SI Axenic amastigote forms: IC50 macrophages/IC50 parasite form; for IC50: Leishmania infantum, 48 hours per method (72 h); for number of times that compound SI exceeds the reference drug SI, Axenic amastigote forms: in brackets, reference Glucantime
Description: (§4) Axenic amastigotes forms of L. infantum and L. braziliensis were cultured following the methodology described previously by Moreno et al.. Thus, promastigote transformation to amastigotes was obtained after three days of culture in M199 medium (Invitrogen, Leiden, The Netherlands) supplemented with 10% heat-inactivated FCS, 1 g/L β-alanine, 100 mg/L L-asparagine, 200 mg/L sacarose, 50 mg/L sodium pyruvate, 320 mg/L malic acid, 40 mg/L fumaric acid, 70 mg/L succinic acid, 200 mg/L α-ketoglutaric acid, 300 mg/L citric acid, 1.1 g/L sodium bicarbonate, 5 g/L MES, 0.4 mg/L hemin, and 10 mg/L gentamicin pH 5.4 at 37°C. The effect of each compound against axenic amastigotes forms was tested at 48 hours using a Neubauer haemocytometric chamber. The antileishmanial effect is expressed as the IC50.

[5] = system: epimastigote forms of Trypanosoma cruzi; parameters: method as in PMID 21466157; details: cited from earlier work
[6] = system: L. braziliensis axenic amastigote forms; assay: Axenic amastigote forms assay; assay type: cell-based, Leishmania braziliensis; details: for SI Axenic amastigote forms: IC50 macrophages/IC50 parasite form; for IC50: Leishmania braziliensis, 48 hours per method (72 h); for number of times that compound SI exceeds the reference drug SI, Axenic amastigote forms: in brackets, reference Glucantime
Description: as §4

[7] = system: L. infantum intracellular amastigote forms; assay: Intracellular amastigote forms assay in J774.2 macrophages; assay type: cell-based, Leishmania infantum; details: for SI Intracellular amastigote forms / number of times that compound SI exceeds the reference drug SI, Intracellular amastigote forms: L. infantum; for SI Intracellular amastigote forms: IC50 macrophages/IC50 parasite form; for number of times that compound SI exceeds the reference drug SI, Intracellular amastigote forms: in brackets, reference Glucantime; for IC50: Leishmania infantum, L. infantum in J774.2 macrophages, 72 h
Description: as §2, §3

IC50 [1]	IC50 [2]	IC50 [3]	IC50 [4]	IC50 [6]	SMILES	SI Promastigote forms [1]	number of times that compound SI exceeds the reference drug SI, Promastigote forms [1]	SI Promastigote forms [2]	times SI exceeds the reference drug SI (all forms) [2]	number of times that compound SI exceeds the reference drug SI, Promastigote forms [2]	SI Intracellular amastigote forms [3]	number of times that compound SI exceeds the reference drug SI, Intracellular amastigote forms [3]	IC50 (J774.2 macrophages)	SI Axenic amastigote forms [4]	number of times that compound SI exceeds the reference drug SI, Axenic amastigote forms [4]	IC50 compared with benznidazole [5]	SI Axenic amastigote forms [6]	number of times that compound SI exceeds the reference drug SI, Axenic amastigote forms [6]	SI Intracellular amastigote forms [7]	number of times that compound SI exceeds the reference drug SI, Intracellular amastigote forms [7]	further results
28.4 ± 3 µM	40.4 ± 3.4 µM	41.9 ± 4 µM	29.2 ± 3.1 µM	32.9 ± 3 µM	CC(=O)OC[C@H]1O[C@@H](Oc2c(-c3ccc(OC(C)=O)cc3)oc3cc(OC(C)=O)cc(OC(C)=O)c3c2=O)[C@H](OC(C)=O)[C@@H](OC(C)=O)[C@@H]1OC(C)=O [Compound 3]	12.3	21	8.7	< 50 times	11	8.4	17	351 ± 26.8 µM	12.0	20	significantly lower IC50 values compared with benznidazole	10.7	21	9.2	18	IC50 [7]: 38.1 ± 1.6 µM
28.1 ± 1 µM	35.1 ± 3.3 µM	32.2 ± 1.6 µM	29.2 ± 2.8 µM	22.6 ± 1.7 µM	O=c1c(O[C@@H]2O[C@H](CO)[C@@H](O)[C@H](O)[C@H]2O)c(-c2ccc(O)cc2)oc2cc(O)cc(O)c12 [Compound 1, astragalin]	8.4	14	6.7	< 50 times	8	7.3	15	236 ± 17.9 µM	8.1	14	significantly lower IC50 values compared with benznidazole	10.4	21	5.1	10	IC50 [7]: 45.9 ± 2.7 µM
25.1 ± 2.5 µM	34.1 ± 1.6 µM	30.2 ± 3.8 µM	32.7 ± 5 µM	27.9 ± 2.7 µM	CC(=O)O[C@H]1[C@H](Oc2c(-c3ccc(O)cc3)oc3cc(O)cc(O)c3c2=O)O[C@H](CO)[C@@H](O)[C@@H]1O [Compound 2]	10.6	18	7.8	< 50 times	10	8.8	18	267 ± 11 µM	8.2	14	significantly lower IC50 values compared with benznidazole	9.6	19	6.3	13	IC50 [7]: 42.3 ± 3.9 µM
